Values of other authors as cited in patent US20260021105A1, “METHOD FOR TREATING PSORIASIS” (Reviva Pharmaceuticals, Inc., priority 2023, published 2026).

Columns and labels:
5-HT2B/7 = conditions: as an antagonist
D2-4 receptors = conditions: as partial agonist
[1] = target: serotonin transporter (SERT) (Homo sapiens, UniProt P31645)
5-HT2A = 5-HT2A (Homo sapiens, UniProt P28223); conditions: as a weak partial agonist or neutral antagonist
5-HT1A receptors = target: T1, 5-HT1A receptors (Homo sapiens, UniProt P08908); conditions: as partial agonist
T1 sequence (P08908 1-422): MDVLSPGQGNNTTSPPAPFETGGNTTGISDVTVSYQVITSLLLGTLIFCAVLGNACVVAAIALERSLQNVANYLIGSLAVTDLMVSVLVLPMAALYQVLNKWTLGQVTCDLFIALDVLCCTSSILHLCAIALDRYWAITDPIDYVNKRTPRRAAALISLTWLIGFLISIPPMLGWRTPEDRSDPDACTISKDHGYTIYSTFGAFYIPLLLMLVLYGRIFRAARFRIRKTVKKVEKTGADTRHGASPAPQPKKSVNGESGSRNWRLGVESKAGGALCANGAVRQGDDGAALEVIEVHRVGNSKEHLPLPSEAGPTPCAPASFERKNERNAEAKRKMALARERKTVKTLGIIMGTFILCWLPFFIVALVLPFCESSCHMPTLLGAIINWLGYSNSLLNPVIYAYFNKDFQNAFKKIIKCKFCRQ

5-HT2A, sequence (P28223 whole entry, species assumed): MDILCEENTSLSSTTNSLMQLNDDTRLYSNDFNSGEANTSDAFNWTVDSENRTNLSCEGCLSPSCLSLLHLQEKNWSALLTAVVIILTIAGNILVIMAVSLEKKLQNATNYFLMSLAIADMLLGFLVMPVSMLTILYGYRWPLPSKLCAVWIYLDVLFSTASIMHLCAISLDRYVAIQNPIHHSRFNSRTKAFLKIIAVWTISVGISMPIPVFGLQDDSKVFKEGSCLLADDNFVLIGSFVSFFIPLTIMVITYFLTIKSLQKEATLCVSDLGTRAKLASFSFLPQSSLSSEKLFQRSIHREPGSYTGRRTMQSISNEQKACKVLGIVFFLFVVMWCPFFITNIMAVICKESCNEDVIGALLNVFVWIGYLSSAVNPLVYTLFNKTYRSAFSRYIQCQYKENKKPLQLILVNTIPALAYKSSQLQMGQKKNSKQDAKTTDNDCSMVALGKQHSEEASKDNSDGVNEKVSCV
serotonin transporter (SERT), sequence (P31645 whole entry, species assumed): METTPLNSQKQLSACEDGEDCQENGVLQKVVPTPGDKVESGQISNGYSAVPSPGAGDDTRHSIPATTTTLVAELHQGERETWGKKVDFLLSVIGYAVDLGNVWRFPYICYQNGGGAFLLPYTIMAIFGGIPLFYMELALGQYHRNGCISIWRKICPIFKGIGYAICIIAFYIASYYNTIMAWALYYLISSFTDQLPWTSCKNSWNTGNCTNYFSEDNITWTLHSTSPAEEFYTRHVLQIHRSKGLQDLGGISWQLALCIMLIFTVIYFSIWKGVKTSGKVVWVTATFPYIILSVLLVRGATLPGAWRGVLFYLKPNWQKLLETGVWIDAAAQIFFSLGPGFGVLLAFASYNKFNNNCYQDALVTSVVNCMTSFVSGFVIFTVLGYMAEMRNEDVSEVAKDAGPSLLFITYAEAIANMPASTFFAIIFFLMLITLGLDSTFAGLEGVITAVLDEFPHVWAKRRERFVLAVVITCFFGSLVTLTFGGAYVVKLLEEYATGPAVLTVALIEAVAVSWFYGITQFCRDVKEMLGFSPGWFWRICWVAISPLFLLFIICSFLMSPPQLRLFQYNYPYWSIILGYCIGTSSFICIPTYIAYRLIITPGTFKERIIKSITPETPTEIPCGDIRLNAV

binding affinity (5-HT2B/7): high binding affinity
binding affinity (D2-4 receptors): high binding affinity
affinity [1]: moderate affinity
binding affinity (5-HT2A): high binding affinity
binding affinity (5-HT1A receptors): high binding affinity
SMILES: O=C1COc2ccc(OCCCCN3CCN(c4cccc(Cl)c4Cl)CC3)cc2N1 [Brilaroxazine]
